These results are taken from patent US11918589B2, “Medicament for treatment of multiple sclerosis” (NIPPON CHEMIPHAR CO., LTD., priority 2016, dated 2024).

Assay [1] deals with EAE model rats. As to the kind of experiment: Preventive repetitive oral administration to EAE model rats, pain threshold (von Frey, up-down method), symptoms (EAE score), weight. It is filed as in vivo, rat. The note with it: orally twice a day 10 mg/kg over 22 days from Day 0, von Frey 50% pain threshold, FIG. 3. The method, then:
(§1) EAE model rats were prepared by the same method as that of Example 2. […] For symptom observation, behaviors of the animals allowed to freely act were scored in accordance with the criteria shown in Table 111. The pain threshold was measured after the animals were put into a cage for measurement of which floor is made of a wire gauze, and acclimatized in the environment for 20 minutes or longer. The measurement of the pain threshold was performed according to the method of Chaplan et al. using 7 of von Frey filaments giving different stimulation intensities, and the 50% pain threshold was calculated by the up-down method of Dixon.

Assay [2] deals with EAE model rats. As to the kind of experiment: Therapeutic repetitive oral administration to EAE model rats, pain threshold. It is filed as in vivo, rat. The note with it: orally twice a day 10 mg/kg over 21 days from Day 10 (average EAE score 2 or larger), FIG. 4. The procedure: as §1
EAE model rats were prepared by the same method as that of Example 2.

The test system of assay [3] is EAE model rats. As to the kind of experiment: Preventive continuous administration into the subarachnoid cavity of EAE model rats, pain threshold. The note with it: preventive continuous administration into the subarachnoid cavity 10 nmol/5 μL/hr for about 14 days, FIG. 5. The format is in vivo, rat. The procedure: A polystyrene catheter having an external diameter of 0.30 mm was detained in the subarachnoid cavity in each of 10 weeks old LEW/CrlCrlj female rats. After about one week from the detainment of the catheter for administration in the subarachnoid cavity, EAE model rats were prepared by the same method as that of Example 2.

For a further assay, the system named is EAE model animals. To be noted: reported in the literature; cited from earlier work.

For `O=C1CC(=O)N(c2ccc(NC(=O)c3ccccc3I)cc2)c2ccc3ccccc3c2N1` [compound A, 5-[4-(2-iodobenzoyl)aminophenyl]-1H-naphtho[1,2-b][1,4]diazepine-2,4(3H,5H)-dione], the entries for the “influence on the pain threshold (mechanical allodynia induced by EAE)” value in the assay with EAE model rats [1] and in the assay on EAE model rats [2] were “continuously suppressed mechanical allodynia induced by EAE” and “suppressed mechanical allodynia induced by EAE”, respectively.

For `O=C1CC(=O)N(c2cccc(-c3nnn[nH]3)c2)c2ccc3ccccc3c2N1.[Na]` [compound B, 5-[3-(1H-tetrazol-5-yl)phenyl]-1H-naphtho[1,2-b][1,4]diazepine-2,4(3H,5H)-dione sodium salt], the “influence on the pain threshold (mechanical allodynia induced by EAE)” value in the assay with EAE model rats [3] is “suppressed mechanical allodynia induced by EAE”.

In the case of `CN1CC[C@]23c4c5ccc(O)c4O[C@H]2[C@@H](O)C=C[C@H]3[C@H]1C5` [morphine], in the assay with EAE model animals, the “analgesic action in allodynia observed in the EAE model” value was “markedly decreases”.
